Assay results from US6686353B1, “Diarylalkyl cyclic diamine derivatives as chemokine receptor antagonists” (Teijin Intellectual Property Center Limited, priority 1996, dated 2004).
Read-outs that look alike come from different tables or passages of the source.

How the values were obtained:
[1] = target: T1, human MCP-1 binding to THP-1 cells (Homo sapiens, UniProt P41597); assay: Inhibition of [125I]-labeled human MCP-1 binding to THP-1 cells; details: at 100 μM test compound; read-out: inhibitory activity (inhibition of human MCP-1 binding to THP-1 cells)
T1 construct: endogenous in cells; host or cells: THP-1 (human monocytic leukemia cell line), whole cells
T1 sequence (P41597 1-360 isoform P41597-2): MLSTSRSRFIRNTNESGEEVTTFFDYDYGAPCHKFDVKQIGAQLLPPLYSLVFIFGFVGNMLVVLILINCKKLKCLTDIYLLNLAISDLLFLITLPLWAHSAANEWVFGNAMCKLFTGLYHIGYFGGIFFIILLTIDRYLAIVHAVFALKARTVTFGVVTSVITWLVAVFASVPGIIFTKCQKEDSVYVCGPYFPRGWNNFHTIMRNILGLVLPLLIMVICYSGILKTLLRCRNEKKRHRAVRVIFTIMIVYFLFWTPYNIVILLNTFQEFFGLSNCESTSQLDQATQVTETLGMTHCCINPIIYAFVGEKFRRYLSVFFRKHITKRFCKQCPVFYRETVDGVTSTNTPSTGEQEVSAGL
Source text: Measurement of Inhibition of MCP-1 Binding to TP-1 Cells
1. Construction of Recombinant Baculovirus Carrying the Human MCP-1 Gene
Based on the previously published human MCP-1 gene sequence (for example T. Yoshimura et al., Febs Letters, 1989, 244, 487-493), two synthetic DNA primers (5′-[…]-3′ and 5′-[…]-3′) flanked by restriction enzyme sites were used to amplify a DNA fragment from cDNA derived from human endothelial cells (purchased from Kurabow Co.); the amplified fragment was cut with the restriction enzymes (PstI and XbaI), ligated into a transfer vector pVL1393 (Invitrogen Co.), and the resulting vector was co-transfected along with infectious baculovirus into Sf-9 insect cells and the supernatant was plaque assayed to yield human MCP-1 gene baculovirus recombinant.
2. Synthesis of [^125I]-labeled Human MCP-1 Expressed in Baculovirus
Using the method of K. Ishii et al. (Biochem Biophys Research Communications 1995, 206, 955-961), 5×10^6 Sf-6 insect cells was infected with 5×10^7 PFU (plaque forming units) of the above human MCP-1 recombinant baculovirus and cultured for 7 days in Ex-Cell 401 medium. The culture supernatant was affinity purified using a heparin Sepharose column (Pharmacia Co.) and then further purified using reverse phase HPLC (Vydac C18 column) to prepare purified human MCP-1. The purified human MCP-1 was protein labeled by Amersham Co. using the Bolton Hunter method to yield [^125I]-labeled baculovirus expressed human MCP-1 (specific activity 2000 Ci/mmol).
3. Measurement of Inhibition of Binding of [^125I]-labeled Baculovirus Expressed Human MCP-1 to THP-1 Cells
(§1) Human monocytic leukemia cell line THP-1 was suspended in assay buffer (RPMI-1640 (Gibco-BRL Co.) containing 0.1% BSA and 25 mM HEPES adjusted to pH 7.4) to give a cell suspension of a concentration of 1×10^7 cells/mL. The test compound was diluted in the assay buffer and used as the test compound solution. [^125I]-labeled human MCP-1 described above was diluted in assay buffer to 1 mCi/mL and used as the labeled ligand solution. In a 96 well filter plate (Millipore Co.), 25 μL of test compound solution, 25 μL of labeled ligand solution and 50 μL of cell suspension were aliquoted into each well in this order, stirred (total reaction volume 100 μL), and incubated for one hour at 18° C.
(§2) After the reaction, the reaction solution was filtered, and the filter was washed twice with 200 μL of cold PBS (200 μL of cold PBS was added and then filtered). The filter was removed and placed in an RIA tube (Iuchi Seieido Co.,), and the radioactivity retained by the cells on the filter were measured using a gamma counter (Aloka Co.).
To calculate the ability of test compound to inhibit binding of human MCP-1 to THP-1 cells, non-specific binding determined by adding 100 ng of unlabeled human MCP-1 in place of the test compound was subtracted, while the counts with no test compound added was taken as 100%.
Inhibition (%)=(1−(A−B)/(C−B))×100
(A, counts with test compound added; B, counts with 100 ng of unlabeled human […] added; C, counts with [^125I]-labeled human MCP-1 added).

THP-1 cells = assay: Inhibition of cell chemotaxis caused by MCP-1 (THP-1 cells); assay type: cell-based, human; details: MCP-1 20 ng/mL, 37° C. 2 hr, read-out: 50% inhibition concentration (IC50) of cell migration
Protocol: Measurement of Inhibition of Cell Chemotaxis
In order to determine the inhibition of call chemotaxis by the compounds of this invention, we measured call chemotaxis caused by monocyte chemotactic factor MCP-1 using the human monocytic leukemia cell line THP-1 as the chemotactic cell according to the method of Fall et al. (J. Immunol. Methods, […], 33, 239-247). 2×10^6 cells/mL of THP-1 cells (suspended in RPMI-1640 (Flow Laboratories Co.) +10% FCS) was placed in the upper chamber (200 μL) of a 96 well micro-chemotaxis chamber (Neuroprobe, registered tradename), and human recombinant MCP-1 in a same solution (Peprotech Co.) at a final concentration of 20 ng/mL was placed in the lower chamber, with a polycarbonate filter (PVP-free, Neuroprobe; registered tradename) placed between the two chambers, These were incubated at 37° C. for 2 hr in 5% CO2.
The filter was removed, and the cells which had migrated to the underside of the filter was fixed, stained using Diff Quick (Kokusai Shiyaku Co.) and then quantitated using a plate reader (Molecular Device Co.) at a wavelength of 550 nm to determine the index of cell migration as a mean of 3 wells, In addition. test compounds were placed in the upper chamber along with THP-1, and the inhibition of cell migration (inhibition IC50 (μM)) was determined. […]

[2] = target: T2, human MIP-1α binding to THP-1 cells (Homo sapiens, UniProt P32246); assay: Inhibition of MIP-1α binding to THP-1 cells; details: at 100 μM test compound; read-out: inhibitory activity (inhibition of human MIP-1α binding to THP-1 cells)
T2 construct: endogenous in cells; host or cells: THP-1 (human monocytic leukemia cell line), whole cells
T2 sequence (P32246 1-355): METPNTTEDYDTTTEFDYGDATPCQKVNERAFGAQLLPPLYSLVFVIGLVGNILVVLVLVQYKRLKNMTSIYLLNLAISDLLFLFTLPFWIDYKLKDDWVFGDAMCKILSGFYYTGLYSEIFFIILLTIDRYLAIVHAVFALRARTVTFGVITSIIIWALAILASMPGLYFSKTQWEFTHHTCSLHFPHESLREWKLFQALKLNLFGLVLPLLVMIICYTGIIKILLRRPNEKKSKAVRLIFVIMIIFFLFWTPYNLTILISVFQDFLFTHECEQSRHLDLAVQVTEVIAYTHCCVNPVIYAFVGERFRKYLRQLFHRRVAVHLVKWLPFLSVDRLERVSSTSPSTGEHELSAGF
Protocol: Measurement of Inhibition of MIP-1α Binding to THP-1 Cells by Test Compounds
as §1, with “Iodinated” for “[^125I]-labeled”, “MIP-1α (DuPont NEN Co.)” for “MCP-1 described above”, “250 nCi/mL” for “1 mCi/mL”, “the” for “the labeled”, “solution.” for “solution,”
as §2, with “Co.)” for “Co.,),”
To calculate the ability of test compounds to inhibit binding of human MIP-1α to THP-1 cells, non-specific binding determined by adding 100 ng of unlabeled human MIP-1α (Peprotech Co.) in place of the test compound was subtracted, while the counts with no test compound added was taken as 100%. […]

MCP-1 receptor = target: T3, MCP-1 receptor (Homo sapiens, UniProt P41597); assay: Inhibition of binding of [125I]-labeled human MCP-1 to cells expressing the MCP-1 receptor (293-EBNA transfectant); details: dose dependent inhibition; 293-EBNA cells expressing MCP-1 receptor; read-out: 50% inhibitory concentration (IC50), MCP-1 binding to MCP-1 receptor expressing cells
T3 construct: expressed in transfected cells
T3 sequence (P41597 1-360 isoform P41597-2): T1 sequence (P41597 1-360 isoform P41597-2)
Source text: Measurement of Inhibition of Binding of [^125I]-labeled Human MCP-1 to Cells Expressing the MCP-1 Receptor
1. Derivation of Cells Expressing the MCP-1 Receptor
cDNA fragment containing the MCP-1 receptor reported by S. Yamagami et al., Biochemical Biophysical Research Communications 1994, 202, 1156-1162) was cloned into the expression plasmid pCEP4 (Invitrogen Co.) at the NotI site, and the plasmid obtained was transfected into the human kidney epithelial cell line 293-EBNA using the Lipofectamine reagent (Gibco-BRL Co.). The cells were cultured in the presence of the selective agent (Hygromycin), and a stably expressing transfectant line was obtained. The express ion of the receptor was confirmed by binding of [^125I]-labeled human MCP-1.
2. Measurement of Inhibition of Binding of [^125I]-labeled Baculovirus Expressed Human MCP-1 to the MCP-1 Receptor Expressing Cells
The MCP-1 receptor expressing cells on tissue culture dishes were scraped using a call scraper and suspended in assay buffer (D-MEM(Gibco-BRL Co.) containing 0.1% BSA and 25 mM HEPES adjust ed to pH 7.4) to give a cell suspension of a concentration of 6×10^6 cellls/mL. The test compound was diluted in the assay buffer to concentrations of […], and 100 μM. The remainder of the procedure was as described in Example 163.

inhibition at 100 µM [1] [%] | SMILES | further results
> 20 | CS(=O)(=O)c1ccc(CN2CCCN(CCC(O)(c3ccco3)c3ccco3)CC2)cc1 [Compound No. 129, 1-[3,3-Di(2-furyl)-3-hydroxypropyl]-4-[4-(methylsulfonyl)benzyl]homopiperazine] | –
– | c1ccc(C(CCN2CCCN(Cc3ccncc3)CC2)c2ccccc2)cc1 [compound 240] | IC50 (THP-1 cells): 30 µM
> 20 | CS(=O)(=O)c1ccc(CN2CCCN(CCC(O)(c3ccc(O)cc3)c3ccc(O)cc3)CC2)cc1 [Compound No. 119, 1-[3,3-bis(4-Hydroxyphenyl)-3-hydroxypropyl]-4-[4-(methylsulfonyl)benzyl]homopiperazine] | –
> 20 | OC(CCN1CCCN(Cc2ccc(Cl)cc2)CC1)(c1ccccc1)c1ccccc1 [Compound No. 107, 1-(3-Hydroxy-3,3-diphenylpropyl)-4-(4-chlorobenzyl)homopiperazine] | inhibition at 100 µM [2]: > 20%
> 20 | NC(=O)c1ccc(CN2CCCN(CCC(c3ccccc3)c3ccccc3)CC2)cc1 [Compound No. 55, 1-(3,3-Diphenylpropyl)-4-(4-carbamoylbenzyl)homopiperazine] | –
> 20 | CC(C)(C)OC(=O)N1CCCN(CCC(O)(c2ccccc2)c2cccc(O)c2)CC1 (centres unmarked) [Compound No. 294, 1-(tert-butyloxycarbonyl)-4-[3-hydroxy-3-(3-hydroxyphenyl)-3-phenylpropyl]homopiperazine] | –
> 20 | CS(=O)(=O)c1ccc(CN2CCCN(CCC(c3ccccc3)c3ccccc3)CC2)cc1 [compound 36] | IC50 (THP-1 cells; Homo sapiens): 9 µM; IC50 (MCP-1 receptor): 17 µM
> 20 | Cn1cccc1C(O)(CCN1CCCN(Cc2ccc(S(C)(=O)=O)cc2)CC1)c1ccccc1 (centres unmarked) [Compound No. 136, 1-[3-Hydroxy-3-(1-methyl-2-pyrrolyl)-3-phenylpropyl]-4-[4-(methylsulfonyl)benzyl]homopiperazine] | –
> 20 | CC(=O)Nc1cccc(C(O)(CCN2CCCN(Cc3ccc(S(C)(=O)=O)cc3)CC2)c2ccccc2)c1 (centres unmarked) [Compound No. 162, 1-[3-(3-Acetylaminophenyl)-3-hydroxy-3-phenylpropyl]-4-[4-(methylsulfonyl)benzyl]homopiperazine] | –
> 20 | CC(=O)N1CCCN(CCC(O)(c2ccccc2)c2cccc(O)c2)CC1 (centres unmarked) [Compound No. 296, 1-acetyl-4-[3-hydroxy-3-(3-hydroxyphenyl)-3-phenylpropyl]homopiperazine] | –
> 20 | Oc1cccc(C(O)(CCN2CCCNCC2)c2ccccc2)c1 (centres unmarked) [Compound No. 295, 1-[3-hydroxy-3-(3-hydroxyphenyl)-3-phenylpropyl]homopiperazine] | –
